Tests used:
[1] = target: T1, triosephosphate isomerase (TbbTIM) (Trypanosoma brucei, UniProt P04789, I172A/L232A); assay: activation of [[…]-13C]-glycolaldehyde turnover followed by 1H NMR, fit to give Kd; type: biochemical
[2] = target: T1, triosephosphate isomerase (TbbTIM); assay: X-ray crystal structure; type: biochemical
O=C[C@H](O)COP(=O)(O)O = assay: steady-state kinetics of isomerization; type: biochemical, Trypanosoma brucei; details: active site; pH 7.5; 25.0 °C

Molecule: O=[PH](O)O [HPi, phosphite dianion]
- Kd [1]: 5.9 ± 0.5 mM

Molecule: O=C(O)COP(=O)(O)O [PGA, 2-phosphoglycolate]
- Ki [2]: 0.12 mM

Molecule: triosephosphate isomerase (TbbTIM) (Trypanosoma brucei brucei; I172A/L232A)
- kcat/Km (O=C[C@H](O)COP(=O)(O)O): 350000 M⁻¹ s⁻¹
